The first assay deals with human factor D (Homo sapiens (Human), UniProt P00746). As to the kind of experiment: biochemical. The class given is biochemical. The following applies: Factor D inhibition data using Method 1; recombinant human factor D 10 nM, substrate Z-Lys-thiobenzyl, fluorescence; read-out: IC50. The method in brief:
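E. coli-expressed recombinant human factor D (10 nM) was preincubated with compound for 1 h at room temperature in 0.1 M Hepes pH 7.5, 1 mM MgCl2, 1 M NaCl, 0.05% CHAPS. Fluorescence (ex 485/em 535 nm) was read after adding Z-Lys-thiobenzyl (200 μM) and 2,4-dinitrobenzenesulfonyl-fluoresceine (25 μM); IC50 came from percent inhibition versus concentration.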
human factor D, sequence (P00746 26-253): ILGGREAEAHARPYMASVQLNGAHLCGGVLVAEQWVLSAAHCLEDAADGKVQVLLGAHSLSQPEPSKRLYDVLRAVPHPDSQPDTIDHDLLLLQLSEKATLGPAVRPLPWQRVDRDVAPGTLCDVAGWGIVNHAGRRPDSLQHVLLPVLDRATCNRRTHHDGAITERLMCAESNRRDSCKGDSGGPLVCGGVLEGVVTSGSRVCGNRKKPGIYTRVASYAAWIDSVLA
As usually defined, the IC50 is the concentration at which inhibition is half-maximal. As to `NC(=O)c1nn(CC(=O)N2[C@@H]3C[C@@H]3C[C@H]2C(=O)NC[C@H]2CC2(Cl)Cl)c2ccc(Cl)cc12` [Example 97, 5-Chloro-1-(2-{(1R,3S,5R)-3-[((R)-2,2-dichloro-cyclopropylmethyl)-carbamoyl]-2-aza-bicyclo[3.1.0]hex-2-yl}-2-oxo-ethyl)-1H-indazole-3-carboxylic acid amide], the IC50 was found to be 218 nM.
Same read-out and setting: as for `NC(=O)c1nn(CC(=O)N2[C@@H]3C[C@@H]3C[C@H]2C(=O)NC[C@H]2CC2(Cl)Cl)c2ccc(F)cc12` [Example 98, 1-(2-{(1R,3S,5R)-3-[((R)-2,2-Dichloro-cyclopropylmethyl)-carbamoyl]-2-aza-bicyclo[3.1.0]hex-2-yl}-2-oxo-ethyl)-5-fluoro-1H-indazole-3-carboxylic acid amide], the figure is 248 nM; as for `CC(=O)c1nn(CC(=O)N2[C@@H]3C[C@@H]3C[C@H]2C(=O)NC[C@H]2CC2(Cl)Cl)c2ccc(OCc3ncccc3F)cc12` [Example 99, (1R,3S,5R)-2-{2-[3-Acetyl-5-(3-fluoro-pyridin-2-ylmethoxy)-indazol-1-yl]-acetyl}-2-aza-bicyclo[3.1.0]hexane-3-carboxylic acid ((R)-2,2-dichloro-cyclopropylmethyl)-amide], 32 nM; as for `CC(=O)c1nn(CC(=O)N2[C@@H]3C[C@@H]3C[C@H]2C(=O)NC[C@H]2CC2(Cl)Cl)c2ccc(OC(C)c3ncccn3)cc12` (stereo partly drawn) [Example 100, (1R,3S,5R)-2-{2-[3-Acetyl-5-(1-pyrimidin-2-yl-ethoxy)-indazol-1-yl]-acetyl}-2-aza-bicyclo[3.1.0]hexane-3-carboxylic acid ((R)-2,2-dichloro-cyclopropylmethyl)-amide], 158 nM.
Same read-out and setting: to `CC1(C)[C@@H](CNC(=O)[C@@H]2C[C@H]3C[C@H]3N2C(=O)Cn2nc(C(N)=O)c3ccncc32)C1(Cl)Cl` [Example 101, 1-(2-{(1R,3S,5R)-3-[((S)-2,2-Dichloro-3,3-dimethyl-cyclopropylmethyl)-carbamoyl]-2-aza-bicyclo[3.1.0]hex-2-yl}-2-oxo-ethyl)-1H-pyrazolo[3,4-c]pyridine-3-carboxylic acid amide] belongs 297 nM.
Same read-out and setting: as for `CC1(C)[C@H](CNC(=O)[C@@H]2C[C@H]3C[C@H]3N2C(=O)Cn2nc(C(N)=O)c3ccncc32)C1(Cl)Cl` [Example 102, 1-(2-{(1R,3S,5R)-3-[((R)-2,2-Dichloro-3,3-dimethyl-cyclopropylmethyl)-carbamoyl]-2-aza-bicyclo[3.1.0]hex-2-yl}-2-oxo-ethyl)-1H-pyrazolo[3,4-c]pyridine-3-carboxylic acid amide], the figure is 118 nM; as for `CC(=O)c1nn(CC(=O)N2[C@@H]3C[C@@H]3C[C@H]2C(=O)NC[C@@H]2C(C)(C)C2(Cl)Cl)c2ccc(OCc3ncccn3)cc12` [Example 103, (1R,3S,5R)-2-{2-[3-Acetyl-5-(pyrimidin-2-ylmethoxy)-indazol-1-yl]-acetyl}-2-aza-bicyclo[3.1.0] hexane-3-carboxylic acid ((S)-2,2-dichloro-3,3-dimethyl-cyclopropylmethyl)-amide], 70 nM; as for `CC(=O)c1nn(CC(=O)N2[C@@H]3C[C@@H]3C[C@H]2C(=O)NC[C@H]2C(C)(C)C2(Cl)Cl)c2ccc(OCc3ncccn3)cc12` [Example 104, (1R,3S,5R)-2-{2-[3-Acetyl-5-(pyrimidin-2-ylmethoxy)-indazol-1-yl]-acetyl}-2-aza-bicyclo[3.1.0] hexane-3-carboxylic acid ((R)-2,2-dichloro-3,3-dimethyl-cyclopropylmethyl)-amide], 16 nM.
Consider `CC(=O)c1nn(CC(=O)N2[C@@H]3C[C@@H]3C[C@H]2C(=O)NC[C@H]2CC2(Cl)Cl)c2ccc(OCc3cscn3)cc12` [Example 105, (1R,3S,5R)-2-{2-[3-Acetyl-5-(thiazol-4-ylmethoxy)-indazol-1-yl]-acetyl}-2-aza-bicyclo[3.1.0]hexane-3-carboxylic acid ((R)-2,2-dichloro-cyclopropylmethyl)-amide], for which the IC50 amounted to 14 nM.
Still for that read-out and setting: to `CC(=O)c1nn(CC(=O)N2[C@@H]3C[C@@H]3C[C@H]2C(=O)NC[C@H]2CC2(Cl)Cl)c2ccc(OCc3nccs3)cc12` [Example 106, (1R,3S,5R)-2-{2-[3-Acetyl-5-(thiazol-2-ylmethoxy)-indazol-1-yl]-acetyl}-2-aza-bicyclo[3.1.0]hexane-3-carboxylic acid ((R)-2,2-dichloro-cyclopropylmethyl)-amide] belongs 5 nM; to `CC1(C)[C@H](CNC(=O)[C@@H]2C[C@H]3C[C@H]3N2C(=O)Cn2nc(C(N)=O)c3ccccc32)C1(Cl)Cl` [Example 107, 1-(2-{(1R,3S,5R)-3-[((R)-2,2-Dichloro-3,3-dimethyl-cyclopropylmethyl)-carbamoyl]-2-aza-bicyclo[3.1.0]hex-2-yl}-2-oxo-ethyl)-1H-indazole-3-carboxylic acid amide], 52 nM.
Still for that read-out and setting: as for `NC(=O)c1nn(CC(=O)N2[C@@H]3C[C@@H]3C[C@H]2C(=O)NC[C@H]2CC2(Cl)Cl)c2ccc(OCc3ncccn3)cc12` [Example 110, 1-(2-{(1R,3S,5R)-3-[((R)-2,2-Dichloro-cyclopropylmethyl)-carbamoyl]-2-aza-bicyclo [3.1.0]hex-2-yl}-2-oxo-ethyl)-5-(pyrimidin-2-ylmethoxy)-1H-indazole-3-carboxylic acid amide], the figure is 41 nM; as for `Cc1nccc2c(C(N)=O)nn(CC(=O)N3[C@@H]4C[C@@H]4C[C@H]3C(=O)NC[C@H]3CC3(Cl)Cl)c12` [Example 112, 1-(2-{(1R,3S,5R)-3-[((R)-2,2-Dichloro-cyclopropylmethyl)-carbamoyl]-2-aza-bicyclo[3.1.0]hex-2-yl}-2-oxo-ethyl)-7-methyl-1H-pyrazolo[3,4-c]pyridine-3-carboxylic acid amide], 188 nM.
On the same count and under the same terms, to `Cc1ccc2c(C(N)=O)nn(CC(=O)N3[C@@H]4C[C@@H]4C[C@H]3C(=O)NC[C@H]3CC3(Cl)Cl)c2c1` [Example 113, 1-(2-{(1R,3S,5R)-3-[((R)-2,2-Dichloro-cyclopropylmethyl)-carbamoyl]-2-aza-bicyclo[3.1.0]hex-2-yl}-2-oxo-ethyl)-6-methyl-1H-indazole-3-carboxylic acid amide] belongs 74 nM; to `NC(=O)c1nn(CC(=O)N2[C@@H]3C[C@@H]3C[C@H]2C(=O)NC[C@H]2CC2(Cl)Cl)c2cc(Cl)ccc12` [Example 114, 6-Chloro-1-(2-{(1R,3S,5R)-3-[((R)-2,2-dichloro-cyclopropylmethyl)-carbamoyl]-2-aza-bicyclo[3.1.0]hex-2-yl}-2-oxo-ethyl)-1H-indazole-3-carboxylic acid amide], 40 nM.
With `CC(=O)c1nn(CC(=O)N2[C@@H]3C[C@@H]3C[C@H]2C(=O)NC[C@H]2CC2(Cl)Cl)c2ccc(O)cc12` [Example 122, (1R,3S,5R)-2-[2-(3-Acetyl-5-hydroxy-indazol-1-yl)-acetyl]-2-aza-bicyclo[3.1.0]hexane-3-carboxylic acid ((R)-2,2-dichloro-cyclopropylmethyl)-amide], the IC50 worked out at 58 nM.
Still for that read-out and setting: to `NC(=O)c1nn(CC(=O)N2[C@@H]3C[C@@H]3C[C@H]2C(=O)N[C@H](CO)C23CC(C(F)(F)F)(C2)C3)c2ccccc12` [Example 123, 1-(2-{(1R,3S,5R)-3-[(S)-2-Hydroxy-1-(3-trifluoromethyl-bicyclo[1.1.1]pent-1-yl)-ethylcarbamoyl]-2-aza-bicyclo[3.1.0]hex-2-yl}-2-oxo-ethyl)-1H-indazole-3-carboxylic acid amide] belongs 1240 nM.

Staying with this assay, now noted: IC50, Factor D inhibition data using Method 1; recombinant human factor D 10 nM, substrate Z-Lys-thiobenzyl, fluorescence.
With `[2H]C([2H])([2H])[C@@H](NC(=O)[C@@H]1C[C@H]2C[C@H]2N1C(=O)Cn1nc(C(N)=O)c2ccccc21)[C@H]1CC1(Cl)Cl` [Example 121, 1-(2-{(1R,3S,5R)-3-[(R)-1-((R)-2,2-Dichloro-cyclopropyl)-ethyl-2,2,2-D3-carbamoyl]-2-aza-bicyclo[3.1.0]hex-2-yl}-2-oxo-ethyl)-1H-indazole-3-carboxylic acid amide], the IC50 came to 14 nM.
